Laboratory results from ChEMBL document CHEMBL1152405, “Bis-anthracenyl isoxazolyl amides have enhanced anticancer activity” (Bioorg Med Chem Lett, 2009).

Tests used:
Assay type in all cases: functional
[1] = tested on: HCC 2998; assay: Growth inhibition of human HCC2998 cells at 10 uM after 24 hrs by MTT assay relative to control; set-up: scale not given: the % may be the effect or the level left
[2] = tested on: HT-29; assay: Growth inhibition of human HT-29 cells at 10 uM after 24 hrs by MTT assay relative to control; set-up: scale not given: the % may be the effect or the level left
[3] = tested on: BT-549; assay: Growth inhibition of human BT549 cells at 10 uM after 24 hrs by MTT assay relative to control; set-up: scale not given: the % may be the effect or the level left
[4] = tested on: MDA-MB-435; assay: Growth inhibition of human MDA-MB-435 cells at 10 uM after 24 hrs by MTT assay relative to control; set-up: scale not given: the % may be the effect or the level left
[5] = tested on: OVCAR-8; assay: Growth inhibition of human OVCAR8 cells at 10 uM after 24 hrs by MTT assay relative to control; set-up: scale not given: the % may be the effect or the level left
[6] = tested on: SN12C; assay: Growth inhibition of human SN12C cells at 10 uM after 24 hrs by MTT assay relative to control; set-up: scale not given: the % may be the effect or the level left
[7] = tested on: TK-10; assay: Growth inhibition of human TK10 cells at 10 uM after 24 hrs by MTT assay relative to control; set-up: scale not given: the % may be the effect or the level left
[8] = tested on: SK-MEL-28; assay: Growth inhibition of human SK-MEL-28 cells at 10 uM after 24 hrs by MTT assay relative to control; set-up: scale not given: the % may be the effect or the level left
[9] = tested on: UACC-257; assay: Growth inhibition of human UACC257 cells at 10 uM after 24 hrs by MTT assay relative to control; set-up: scale not given: the % may be the effect or the level left
[10] = tested on: UACC-62; assay: Growth inhibition of human UACC62 cells at 10 uM after 24 hrs by MTT assay relative to control; set-up: scale not given: the % may be the effect or the level left
[11] = tested on: DU-145; assay: Growth inhibition of human DU145 cells at 10 uM after 24 hrs by MTT assay relative to control; set-up: scale not given: the % may be the effect or the level left
[12] = tested on: PC-3; assay: Growth inhibition of human PC3 cells at 10 uM after 24 hrs by MTT assay relative to control; set-up: scale not given: the % may be the effect or the level left
[13] = tested on: SF-295; assay: Growth inhibition of human SF295 cells at 10 uM after 24 hrs by MTT assay relative to control; set-up: scale not given: the % may be the effect or the level left
[14] = tested on: SNB-19; assay: Growth inhibition of human SNB19 cells at 10 uM after 24 hrs by MTT assay relative to control; set-up: scale not given: the % may be the effect or the level left
[15] = tested on: U-251; assay: Growth inhibition of human U251 cells at 10 uM after 24 hrs by MTT assay relative to control; set-up: scale not given: the % may be the effect or the level left
[16] = Growth inhibition of human […] cells after 24 hrs by MTT assay
[17] = tested on: EKVX; assay: Growth inhibition of human EKVX cells after 24 hrs by MTT assay
[18] = tested on: HOP-92; assay: Growth inhibition of human HOP92 cells after 24 hrs by MTT assay; conditions: HOP-92, 24 h
[19] = tested on: NCI-H226; assay: Growth inhibition of human NCI-H226 cells after 24 hrs by MTT assay; conditions: NCI-H226, 24 h
[20] = tested on: COLO 205; assay: Growth inhibition of human COLO205 cells after 24 hrs by MTT assay; conditions: COLO 205, 24 h
[21] = tested on: HCC 2998; assay: Growth inhibition of human HCC2998 cells after 24 hrs by MTT assay; conditions: HCC 2998, 24 h
[22] = read-out: LC50 (the source's name)
[23] = read-out: pLC50 (the source's name) (converted)

Cc1onc(-c2c3ccccc3c(Cl)c3ccccc23)c1C(=O)Nc1cc(C(=O)NCCCN(C)CCCNC(=O)c2cc(NC(=O)c3c(-c4c5ccccc5c(Cl)c5ccccc45)noc3C)cn2C)n(C)c1
Activity [1]: -91.29% | Activity [2]: -91.6% | Activity [3]: -49.26% | Activity [4]: -100% | Activity [5]: -63.16% | Activity [6]: -96.46% | Activity [7]: -89.17% | Activity [8]: -100% | Activity [9]: -60.8% | Activity [10]: -100% | Activity [11]: -100% | Activity [12]: -100% | Activity [13]: -75.66% | Activity [14]: -100% | Activity [15]: -100% | TGI [16]: 3.38 µM | GI50 ([16]; read-out: GI50): 1.39 µM | CC50 [16, 22]: 8.21 µM | GI50 ([16]; read-out: pGI50 (converted)): 1.38 µM | CC50 [16, 23]: 8.13 µM | TGI [17]: 5.27 µM | GI50 ([17]; read-out: GI50): 1.91 µM | CC50 [17, 22]: 100 µM | GI50 ([17]; read-out: pGI50 (converted)): 1.91 µM | CC50 [17, 23]: > 100 µM | TGI [18]: 2.48 µM | GI50 ([18]; read-out: GI50): 1.22 µM | CC50 [18, 22]: 5.03 µM | GI50 ([18]; read-out: pGI50 (converted)): 1.23 µM | CC50 [18, 23]: 5.01 µM | TGI [19]: 29.4 µM | GI50 ([19]; read-out: GI50): 3.15 µM | CC50 [19, 22]: 100 µM | GI50 ([19]; read-out: pGI50 (converted)): 3.16 µM | CC50 [19, 23]: > 100 µM | TGI [20]: 2.48 µM | GI50 ([20]; read-out: GI50): 1.24 µM | CC50 [20, 22]: 4.98 µM | GI50 ([20]; read-out: pGI50 (converted)): 1.23 µM | CC50 [20, 23]: 5.01 µM | TGI [21]: 2.94 µM | GI50 ([21]; read-out: GI50): 1.59 µM | CC50 [21, 22]: 5.42 µM | GI50 ([21]; read-out: pGI50 (converted)): 1.58 µM | CC50 [21, 23]: 5.37 µM
